According to US20250313563A1, “GLYCOGEN SYNTHASE KINASE 3 INHIBITORS AND USES THEREOF” (The Broad Institute, Inc., priority 2022, published 2025):
Like-named read-outs stand apart in the source and are kept apart here.

Experiments:
[1] = molecular target: GSK3α (GST-full length GSK3α) (Homo sapiens (Human), UniProt P49840); test: GSK3α TR-FRET kinase assay; assay type: biochemical; settings: IC50
Method in brief: (§1)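 Compound was preincubated 30 min with 1 nM GST-GSK3 enzyme. Reaction ran 100 min at ambient temperature in Tris pH 7.5/MgCl2 with 200 nM biotinylated pS645-glycogen synthase 631-650 peptide and ATP (4 μM GSK3α, 2 μM GSK3b, or 1 mM). The EDTA-stopped reaction was read by TR-FRET (Tb-anti-pSer641/streptavidin-d2), and IC50s were fitted.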

[2] = molecular target: GSK3b (GST-full length GSK3b) (Homo sapiens (Human), UniProt P49841); test: GSK3b TR-FRET kinase assay; assay type: biochemical; settings: IC50
Sequence of GSK3b (GST-full length GSK3b) (P49841 whole entry): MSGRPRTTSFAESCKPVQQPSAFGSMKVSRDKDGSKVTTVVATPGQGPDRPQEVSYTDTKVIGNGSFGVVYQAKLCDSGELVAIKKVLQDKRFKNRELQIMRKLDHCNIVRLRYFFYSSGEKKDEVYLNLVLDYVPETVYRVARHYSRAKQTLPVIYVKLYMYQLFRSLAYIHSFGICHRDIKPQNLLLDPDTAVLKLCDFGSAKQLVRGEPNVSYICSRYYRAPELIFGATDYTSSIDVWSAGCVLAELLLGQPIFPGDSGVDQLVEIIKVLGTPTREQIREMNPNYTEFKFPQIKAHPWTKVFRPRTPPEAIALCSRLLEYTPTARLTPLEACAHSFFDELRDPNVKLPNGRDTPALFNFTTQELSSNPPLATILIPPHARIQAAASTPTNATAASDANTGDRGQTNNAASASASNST
Method in brief: as §1

[3] = 1 nM GSK3α, 4 μM ATP, 30 minute preincubation, geometric mean, read-out: GSK3-A TR-FRET BIOCHEMICAL (TR-FRET), GMean
[4] = 1 nM GSK3b, 2 μM ATP, 30 minute preincubation, geometric mean, read-out: GSK3-B TR-FRET BIOCHEMICAL (TR-FRET), GMean
[5] = read-out: GSK3-A (TR-FRET 1 mM ATP), GMean, 1 mM ATP, geometric mean
[6] = read-out: GSK3-B (TR-FRET 1 mM ATP), GMean, 1 mM ATP, geometric mean

Sequence of GSK3α (GST-full length GSK3α) (P49840 whole entry): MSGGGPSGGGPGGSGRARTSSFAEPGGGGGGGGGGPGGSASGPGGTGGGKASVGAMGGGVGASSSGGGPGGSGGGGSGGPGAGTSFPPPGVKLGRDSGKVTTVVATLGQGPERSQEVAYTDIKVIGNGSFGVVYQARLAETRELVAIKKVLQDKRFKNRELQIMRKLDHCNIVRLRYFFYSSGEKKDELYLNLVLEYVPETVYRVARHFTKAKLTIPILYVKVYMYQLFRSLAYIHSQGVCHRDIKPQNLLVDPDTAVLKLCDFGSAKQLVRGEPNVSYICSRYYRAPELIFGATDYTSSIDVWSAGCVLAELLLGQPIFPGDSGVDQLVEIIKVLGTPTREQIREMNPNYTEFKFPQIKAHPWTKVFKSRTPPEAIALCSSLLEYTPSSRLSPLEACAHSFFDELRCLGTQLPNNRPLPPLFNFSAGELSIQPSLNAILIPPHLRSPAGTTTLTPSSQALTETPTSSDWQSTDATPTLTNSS

| Structure (SMILES) | IC50 [1, 3] [nM] | IC50 [2, 4] [nM] | also measured |
| --- | --- | --- | --- |
| CC1(C)CC(=O)C2=C(C1)Nc1n[nH]c(Br)c1[C@@]21CCc2c(F)cccc21 [Compound 806938] | 100 to 1000 | 1000 to 5000 | – |
| CC1(C)CC(=O)C2=C(C1)Nc1n[nH]c(Br)c1[C@]21CCc2c(F)cccc21 [Compound 806939] | ≤ 100 | ≤ 100 | – |
| CC[C@]1(c2cccc(N(C)C(C)=O)c2)C2=C(CC(C)(C)CC2=O)Nc2n[nH]cc21 [Compound 810359] | > 5000 | > 5000 | – |
| CCC1(c2cccc(COC)c2)C2=C(CC(C)(C)CC2=O)Nc2n[nH]cc21 (stereo not shown) [Compound 810360] | ≤ 100 | 100 to 1000 | – |
| CCC1(c2cccc(COC)c2)C2=C(CC(C)(C)CC2=O)Nc2n[nH]cc21 (stereo not shown) [Compound 810362] | > 1670 | > 5000 | – |
| CCC1(c2cccc(N3CCOCC3)c2)C2=C(CC(C)(C)CC2=O)Nc2n[nH]cc21 (stereo not shown) [Compound 810363] | 100 to 1000 | 100 to 1000 | – |
| CC[C@@]1(c2cccc(N3CCOCC3)c2)C2=C(CC(C)(C)CC2=O)Nc2n[nH]cc21 [Compound 810364] | > 5000 | > 5000 | – |
| CCC1(c2cccc(Br)c2)C2=C(CC(C)(C)CC2=O)Nc2n[nH]c(C(F)(F)F)c21 (stereo not shown) [Compound 810365] | > 1670 | > 1670 | – |
| CC[C@@]1(c2cccc(N3CCCCC3)c2)C2=C(CC(C)(C)CC2=O)Nc2n[nH]cc21 [Compound 810371] | > 5000 | > 5000 | – |
| CC[C@@]1(c2cccc(C(C)C)c2)C2=C(CC(C)(C)CC2=O)Nc2n[nH]cc21 [Compound 810373] | ≤ 100 | ≤ 100 | IC50 [1, 5]: 100 to 1000 nM; IC50 [2, 6]: 1000 to 5000 nM |
| CC[C@]1(c2cccc(C(C)C)c2)C2=C(CC(C)(C)CC2=O)Nc2n[nH]cc21 [Compound 810375] | 1000 to 5000 | > 5000 | – |
| CC1(C)CC(=O)C2=C(C1)Nc1n[nH]cc1C2(C)c1cc(C(F)(F)F)ccc1F (stereo not shown) [Compound 810376] | ≤ 100 | 100 to 1000 | – |
| CC1(C)CC(=O)C2=C(C1)Nc1n[nH]cc1C2(C)c1cc(Cl)ccc1F (stereo not shown) [Compound 810377] | 100 to 1000 | 1000 to 5000 | – |
| CCC1(c2cccc(N3CCN(C)CC3)c2)C2=C(CC(C)(C)CC2=O)Nc2n[nH]cc21 (stereo not shown) [Compound 810379] | > 1670 | > 5000 | – |
| CCC1(c2cccc(C(F)(F)F)c2)C2=C(CC(C)CC2=O)Nc2n[nH]cc21 (stereo not shown) [Compound 810451] | ≤ 100 | ≤ 100 | – |
| CCC1(c2cccc(C(F)(F)F)c2)C2=C(CC(C)CC2=O)Nc2n[nH]cc21 (stereo not shown) [Compound 810452] | 100 to 1000 | 1000 to 5000 | – |
| CCC1(c2cccc(C(F)(F)F)c2)C2=C(CC(C)CC2=O)Nc2n[nH]cc21 (stereo not shown) [Compound 810453] | > 5000 | > 5000 | – |
| CC1(C)CC(=O)C2=C(C1)Nc1n[nH]c(Br)c1C21CCNc2ccccc21 (stereo not shown) [Compound 810460] | 1000 to 5000 | > 5000 | – |
| CCC1(c2cccc(C(F)(F)F)c2)C2=C(CC(C)(C)CC2=O)Nc2n[nH]c(Br)c21 (stereo not shown) [Compound 810464] | 1000 to 5000 | 1000 to 5000 | – |
| CCC1(c2cccc(C(F)(F)F)c2)C2=C(CC(C)(C)CC2=O)Nc2n[nH]c(Br)c21 (stereo not shown) [Compound 810466] | ≤ 100 | ≤ 100 | IC50 [1, 5]: ≤ 100 nM; IC50 [2, 6]: 100 to 1000 nM |
| CCC1(CC)C2=C(CC(C)(C)CC2=O)Nc2n[nH]cc21 [Compound 810505] | – | – | IC50 ([1]; 1 nM GSK3α, 4 μM ATP, 30 minute preincubation, Table 16, read-out: GSK3-A TR-FRET BIOCHEMICAL (TR-FRET)): 1000 to 5000 nM; IC50 ([2]; 1 nM GSK3b, 2 μM ATP, 30 minute preincubation, Table 16, read-out: GSK3-B TR-FRET BIOCHEMICAL (TR-FRET)): > 5000 nM |
| CCC1(c2cccc(N3CCCC3)c2)C2=C(CC(C)(C)CC2=O)Nc2n[nH]c(C(F)(F)F)c21 (stereo not shown) [Compound 810506] | ≤ 100 | ≤ 100 | – |
| CCC1(c2cccc(N3CCOCC3)c2)C2=C(CC(C)(C)CC2=O)Nc2n[nH]c(C(F)(F)F)c21 (stereo not shown) [Compound 810507] | ≤ 100 | ≤ 100 | – |

| Structure (SMILES) | IC50 [1, 3] [nM] | IC50 [2, 4] [nM] | also measured |
| --- | --- | --- | --- |
| CCC1(c2cccc(SC)c2)C2=C(CC(C)(C)CC2=O)Nc2n[nH]cc21 (stereo not shown) [Compound 810508] | ≤ 100 | 100 to 1000 | – |
| CC[C@@]1(c2cccc(N3CCCC3)c2)C2=C(CC(C)(C)CC2=O)Nc2n[nH]cc21 [Compound 810509] | > 5000 | > 5000 | – |
| CC1(C)CC(=O)C2=C(C1)Nc1n[nH]c(CC(F)(F)F)c1C21CCc2c(F)cccc21 (stereo not shown) [Compound 810590] | 100 to 1000 | 100 to 1000 | – |
| CC1(C)CC(=O)C2=C(C1)Nc1[nH]nc(C3(C(F)(F)F)CC3)c1C21CCc2c(F)cccc21 (stereo not shown) [Compound 810591] | 100 to 1000 | 100 to 1000 | – |
| CCC1(c2ccccc2)C2=C(CS(=O)(=O)CC2=O)Nc2n[nH]cc21 (stereo not shown) [Compound 811512] | – | – | IC50 ([1]; 1 nM GSK3α, 4 μM ATP, 30 minute preincubation, read-out: GSK3-A TR-FRET BIOCHEMICAL (TR-FRET)): > 5000 nM; IC50 ([2]; 1 nM GSK3b, 2 μM ATP, 30 minute preincubation, read-out: GSK3-B TR-FRET BIOCHEMICAL (TR-FRET)): > 5000 nM |
| CCC1(c2ccccc2)C2=C(CC3(CCC3)CC2=O)Nc2n[nH]cc21 (stereo not shown) [Compound 811555] | 100 to 1000 | 100 to 1000 | – |
| Cc1[nH]nc2c1C(C)(c1cccc(C(F)(F)F)c1)C1=C(CC(C)(C)CC1=O)N2 (stereo not shown) [Compound 811556] | ≤ 100 | ≤ 100 | – |
| CC[C@]1(c2cccc(C3CC3)c2)C2=C(CC(C)(C)CC2=O)Nc2n[nH]cc21 [Compound 811557] | ≤ 100 | ≤ 100 | IC50 [1, 5]: 100 to 1000 nM; IC50 [2, 6]: 1000 to 5000 nM |
| CCC1(c2cccc(OC)c2)C2=C(CC(C)CC2=O)Nc2n[nH]cc21 (stereo not shown) [Compound 811559] | ≤ 100 | 100 to 1000 | – |
| CC[C@@]1(c2cccc(OC)c2)C2=C(CC(C)(C)CC2=O)Nc2n[nH]cc21 [Compound 811561] | 1000 to 5000 | > 5000 | – |
| CC[C@@]1(c2cccc(OC(C)C)c2)C2=C(CC(C)(C)CC2=O)Nc2n[nH]cc21 [Compound 811563] | 1000 to 5000 | > 5000 | – |
| CCC1(c2cccc(-c3cnn(C)c3)c2)C2=C(CC(C)(C)CC2=O)Nc2n[nH]c(C(F)(F)F)c21 (stereo not shown) [Compound 811567] | 100 to 1000 | 100 to 1000 | – |
| CCC1(c2cccc(-c3cnn(C)c3)c2)C2=C(CC(C)CC2=O)Nc2n[nH]cc21 (stereo not shown) [Compound 816752] | ≤ 100 | 1000 to 5000 | – |
| CC1(C)CC(=O)C2=C(C1)Nc1n[nH]cc1C21CCc2c(Cl)cccc21 (stereo not shown) [Compound 816795] | ≤ 100 | 100 to 1000 | – |
| CCC1(c2ccccc2)C2=C(CC(C)(C(F)(F)F)CC2=O)Nc2n[nH]cc21 (stereo not shown) [Compound 816796] | 100 to 1000 | 1000 to 5000 | – |
| CC1(C)CC(=O)C2=C(C1)Nc1n[nH]cc1[C@@]2(C)c1cc(C(F)(F)F)ccc1F [Compound 816797] | 1000 to 5000 | > 5000 | – |
| CC1(C)CC(=O)C2=C(C1)Nc1n[nH]cc1[C@]2(C)c1cc(C(F)(F)F)ccc1F [Compound 816798] | ≤ 100 | 100 to 1000 | – |
| CCC1(c2cccc(N3CCCCC3)c2)C2=C(CC(C)(C)CC2=O)Nc2n[nH]c(C(F)(F)F)c21 (stereo not shown) [Compound 816799] | 100 to 1000 | 1000 to 5000 | – |
| CC[C@]1(c2cccc(N3CCCCC3)c2)C2=C(CC(C)(C)CC2=O)Nc2n[nH]c(C(F)(F)F)c21 [Compound 816800] | ≤ 100 | ≤ 100 | IC50 [1, 5]: ≤ 100 nM; IC50 [2, 6]: ≤ 100 nM |
| CC1(C)CC(=O)C2=C(C1)Nc1n[nH]c(CC(F)(F)F)c1C21CCc2c(F)cccc21 (stereo not shown) [Compound 816837] | 1000 to 5000 | 100 to 1000 | – |
| CC1(C)CC(=O)C2=C(C1)Nc1n[nH]c(C3(C(F)(F)F)CC3)c1C21CCc2c(F)cccc21 (stereo not shown) [Compound 816839] | > 5000 | 1000 to 5000 | – |
| CC1(C)CC(=O)C2=C(C1)Nc1n[nH]c(C3(C(F)(F)F)CC3)c1C21CCc2c(F)cccc21 (stereo not shown) [Compound 816840] | 1000 to 5000 | 100 to 1000 | – |
| CC[C@]1(c2ccccc2)C2=C(C[C@](C)(COC)CC2=O)Nc2n[nH]cc21 [Compound 816872] | > 5000 | > 5000 | – |
